Patent US20220289708A1, “SUBSTITUTED N-PHENYL URACILS, SALTS THEREOF AND THEIR USE AS HERBICIDAL AGENTS” (Bayer Aktiengesellschaft, priority 2019, published 2022)

Experiments:
Format in all cases: in vivo
[1] = system: Hordeum murinum; test: Post-emergence herbicidal action
Description: (§1) a. Post-Emergence Herbicidal Action and Crop Plant Compatibility Seeds of monocotyledonous and dicotyledonous weeds and crop plants were placed in sandy loam in plastic or wood-fiber pots, covered with soil and cultivated in a greenhouse under controlled growth conditions. 2 to 3 weeks after sowing, the test plants were treated at the one-leaf stage. The compounds of the invention, formulated in the form of wettable powders (WP) or as emulsion concentrates (EC), were then sprayed onto the green parts of the plants as aqueous suspension or emulsion with addition of 0.5% additive at a water application rate of 600 l/ha (converted). After the test plants had been kept in the greenhouse under optimum growth conditions for about 3 weeks, the activity of the preparations was rated visually in comparison to untreated controls. For example, 100% activity=the plants have died, 0% activity=like control plants. Tables A1 to A15 below show the effects of selected compounds of the general formula (I) according to Tables I.1 to I.36 on various harmful plants and at an application rate corresponding to 20 g/ha and less, which were obtained by the experimental procedure mentioned above.

[2] = system: Setaria viridis; test: Post-emergence herbicidal action; settings: rated visually after about 3 weeks vs untreated controls
Description: as §1

[3] = system: Pharbitis purpurea; test: Post-emergence herbicidal action; settings: rated visually after about 3 weeks vs untreated controls
Description: as §1

[4] = system: Digitaria sanguinalis; test: Post-emergence herbicidal action; settings: rated visually after about 3 weeks vs untreated controls
Description: as §1

[5] = system: Amaranthus retroflexus; test: Post-emergence herbicidal action; settings: rated visually after about 3 weeks vs untreated controls
Description: as §1

[6] = system: Matricaria inodora; test: Post-emergence herbicidal action; settings: rated visually after about 3 weeks vs untreated controls
Description: as §1

[7] = system: Alopecurus myosuroides; test: Post-emergence herbicidal action; settings: rated visually after about 3 weeks vs untreated controls
Description: as §1

[8] = system: Lolium rigidum; test: Post-emergence herbicidal action; settings: rated visually after about 3 weeks vs untreated controls
Description: as §1

[9] = system: Abutilon theophrasti; test: Post-emergence herbicidal action; settings: rated visually after about 3 weeks vs untreated controls
Description: as §1

[10] = system: Echinochloa crus-galli; test: Post-emergence herbicidal action; settings: rated visually after about 3 weeks vs untreated controls
Description: as §1

[11] = system: Avena fatua; test: Post-emergence herbicidal action; settings: application rate 20 g/ha, rated visually after about 3 weeks vs untreated controls
Description: as §1

[12] = system: Viola tricolor; test: Post-emergence herbicidal action
Description: as §1

[13] = system: Stellaria media; test: Post-emergence herbicidal action; settings: application rate 5 g/ha, rated visually after about 3 weeks vs untreated controls
Description: as §1

[14] = system: Veronica persica; test: Post-emergence herbicidal action
Description: as §1

[15] = system: Polygonum convolvulus; test: Post-emergence herbicidal action
Description: as §1

[16] = system: Oryza sativa; test: Post-emergence crop plant compatibility
Description: a. Post-Emergence Herbicidal Action and Crop Plant Compatibility
as §1, with “Seeds” for “a. Post-Emergence Herbicidal Action and Crop Plant Compatibility Seeds”, “plants.” for “plants. Tables A1 to A15 below show the effects of selected compounds of the general formula (I) according to Tables I.1 to I.36 on various harmful plants and at an application rate corresponding to 20 g/ha and less, which were obtained by the experimental procedure mentioned above.”
Tables A16 to A19 below show the crop plant compatibilities of selected compounds of the general formula (I) according to Tables I.1 to I.36 at an application rate corresponding to 5 g/ha or 20 g/ha, which were obtained in experiments according to the experimental procedure mentioned above. Here, the observed effects on selected crop plants are stated in comparison to the untreated controls (values in %).

SMILES	Setaria viridis (efficacy in %) ([2]; application rate 5 g/ha) [%]	Pharbitis purpurea (efficacy in %) ([3]; application rate 5 g/ha) [%]	Digitaria sanguinalis (efficacy in %) ([4]; application rate 20 g/ha) [%]	Amaranthus retroflexus (efficacy in %) ([5]; application rate 20 g/ha) [%]	Alopecurus myosuroides (efficacy in %) ([7]; application rate 20 g/ha) [%]	Lolium rigidum (efficacy in %) ([8]; application rate 20 g/ha) [%]	Abutilon theophrasti (efficacy in %) ([9]; application rate 20 g/ha) [%]	Echinochloa crus-galli (efficacy in %) ([10]; application rate 20 g/ha) [%]	Avena fatua (efficacy in %) [11] [%]	Viola tricolor (efficacy in %) ([12]; application rate 5 g/ha) [%]	Stellaria media (efficacy in %) [13] [%]	Veronica persica (efficacy in %) ([14]; application rate 5 g/ha) [%]	Polygonum convolvulus (efficacy in %) ([15]; application rate 5 g/ha) [%]	Amaranthus retroflexus (efficacy in %) ([5]; application rate 5 g/ha) [%]	Veronica persica (efficacy in %) ([14]; application rate 20 g/ha) [%]	Matricaria inodora (efficacy in %) ([6]; application rate 20 g/ha) [%]	Setaria viridis (efficacy in %) ([2]; application rate 20 g/ha) [%]	Pharbitis purpurea (efficacy in %) ([3]; application rate 20 g/ha) [%]	Viola tricolor (efficacy in %) ([12]; application rate 20 g/ha) [%]	Polygonum convolvulus (efficacy in %) ([15]; application rate 20 g/ha) [%]	other results
COCCOC(=O)COc1ncccc1Sc1cc(-n2c(=O)cc(C(F)(F)F)n(C)c2=O)c(F)cc1Cl [I.1-1, 2-Methoxyethyl {[3-({2-chloro-4-fluoro-5-[3-methyl-2,6-dioxo-4-(trifluoromethyl)-3,6-dihydropyrimidin-1(2H)-yl]phenyl}sulfanyl)pyridin-2-yl]oxy}acetate]	100	100	100	100	80	80	100	100	80	100	90	100	100								Hordeum murinum (efficacy in %) ([1]; application rate 5 g/ha): 80%; Matricaria inodora (efficacy in %) ([6]; application rate 5 g/ha): 100%
Cn1c(C(F)(F)F)cc(=O)n(-c2cc(Sc3cccnc3OCC(=O)OCC3CCCO3)c(Cl)cc2F)c1=O (stereo not drawn) [I.1-71]	100	100							80	100	100	100	100	100							Hordeum murinum (efficacy in %) ([1]; application rate 20 g/ha): 80%; Digitaria sanguinalis (efficacy in %) ([4]; application rate 5 g/ha): 100%; Matricaria inodora (efficacy in %) ([6]; application rate 5 g/ha): 100%; Alopecurus myosuroides (efficacy in %) ([7]; application rate 5 g/ha): 80%; Lolium rigidum (efficacy in %) ([8]; application rate 5 g/ha): 100%; Abutilon theophrasti (efficacy in %) ([9]; application rate 5 g/ha): 100%; Echinochloa crus-galli (efficacy in %) ([10]; application rate 5 g/ha): 100%
COCCOC(=O)CSc1ncccc1Sc1cc(-n2c(=O)cc(C(F)(F)F)n(C)c2=O)c(F)cc1Cl [I.10-1]	80	80							80	100	100		100	80	90						Hordeum murinum (efficacy in %) ([1]; application rate 20 g/ha): 90%; Digitaria sanguinalis (efficacy in %) ([4]; application rate 5 g/ha): 80%; Matricaria inodora (efficacy in %) ([6]; application rate 5 g/ha): 90%; Alopecurus myosuroides (efficacy in %) ([7]; application rate 5 g/ha): 80%; Abutilon theophrasti (efficacy in %) ([9]; application rate 5 g/ha): 80%; Echinochloa crus-galli (efficacy in %) ([10]; application rate 5 g/ha): 100%
COCCCOC(=O)CSc1ncccc1Sc1cc(-n2c(=O)cc(C(F)(F)F)n(C)c2=O)c(F)cc1Cl [I.10-26]	100	100	100			80		100		100	100	80	100	100		100					Alopecurus myosuroides (efficacy in %) ([7]; application rate 5 g/ha): 80%; Abutilon theophrasti (efficacy in %) ([9]; application rate 5 g/ha): 100%
CCOC(COC(=O)COc1ncccc1Oc1cc(-n2c(=O)cc(C(F)(F)F)n(C)c2=O)c(F)cc1[N+](=O)[O-])OCC [I.14-422]			100	100	100	80	100	100	90						100	90	100	100	100	100	Oryza sativa (efficacy in %) ([16]; application rate 20 g/ha): 20%
COCCCOC(=O)COc1ncccc1Oc1cc(-n2c(=O)cc(C(F)(F)F)n(C)c2=O)c(F)cc1Cl [I.15-26, 3-Methoxypropyl [(3-{2-chloro-4-fluoro-5-[3-methyl-2,6-dioxo-4-(trifluoromethyl)-3,6-dihydropyrimidin-1(2H)-yl]phenoxy}pyridin-2-yl)oxy]acetate]	100	100			90				90	100	100	100	100	100							Hordeum murinum (efficacy in %) ([1]; application rate 20 g/ha): 100%; Digitaria sanguinalis (efficacy in %) ([4]; application rate 5 g/ha): 100%; Lolium rigidum (efficacy in %) ([8]; application rate 5 g/ha): 80%; Abutilon theophrasti (efficacy in %) ([9]; application rate 5 g/ha): 100%; Echinochloa crus-galli (efficacy in %) ([10]; application rate 5 g/ha): 100%
Cn1c(C(F)(F)F)cc(=O)n(-c2cc(Oc3cccnc3OCC(=O)OC3COC3)c(Br)cc2F)c1=O [I.16-115]			100	100	100	100	100	100	80						100	100	100	100	100	100	Oryza sativa (efficacy in %) ([16]; application rate 5 g/ha): 20%
CCS(=O)(=O)NCCOC(=O)COc1ncccc1Oc1cc(-n2c(=O)cc(C(F)(F)F)n(C)c2=O)c(F)cc1Br [I.16-421]			100	100	100	90	100	100	100						100	100	100	100	100	100	Oryza sativa (efficacy in %) ([16]; application rate 5 g/ha): 20%
CCOC(COC(=O)COc1ncccc1Oc1cc(-n2c(=O)cc(C(F)(F)F)n(C)c2=O)c(F)cc1Br)OCC [I.16-422]			100	100	100	90	100	100	100						100	100	100	100	100	100	Oryza sativa (efficacy in %) ([16]; application rate 5 g/ha): 20%
Cn1c(C(F)(F)F)cc(=O)n(-c2cc(Oc3cc(F)cnc3OCC(=O)OCC#N)c(Cl)cc2F)c1=O [I.36-176]			100	100	100	80	100	100	80						90	90	100	100	100	100	Oryza sativa (efficacy in %) ([16]; application rate 5 g/ha): 20%
